Reference: US20250049035A1, “MICROBIOCIDAL BICYCLE HETEROCYCLIC DERIVATIVES” (SYNGENTA CROP PROTECTION AG, priority 2021, published 2025)

Tests used:
Alternaria solani = Alternaria solani / tomato / leaf disc (early blight); type: in vivo; details: foliar, tomato leaf disks cv. Baby, inoculated 2 days after application, assessed 5-7 days after application, compared to untreated control
Protocol: Example B1: Alternaria solani/Tomato/Leaf Disc (Early Blight) Tomato leaf disks cv. Baby are placed on agar in multiwell plates (24-well format) and sprayed with the formulated test compound diluted in water. The leaf disks are inoculated with a spore suspension of the fungus 2 days after application. The inoculated leaf disks are incubated at 23° C./21° C.

[1] = test system: Mycosphaerella arachidis (Cercospora arachidicola); assay: Mycosphaerella arachidis (Cercospora arachidicola) / liquid culture (early leaf spot); type: cell-based; details: liquid culture (potato dextrose broth), growth inhibition photometrically 4-5 days after application, compared to untreated control
Protocol: (§1) Example B10: Mycosphaerella arachidis (Cercospora arachidicola)/Liquid Culture (Early Leaf Spot) Conidia of the fungus from cryogenic storage are directly mixed into a nutrient broth (potato dextrose broth) After placing a DMSO solution of test compound into a microtiter plate (96-well format), the nutrient broth containing the fungal spores is added. The test plates are incubated at 24° C. and the inhibition of growth is determined photometrically 4-5 days after application.

[2] = test system: Botryotinia fuckeliana (Botrytis cinerea); assay: Botryotinia fuckeliana (Botrytis cinerea) / liquid culture (gray mould); type: cell-based; details: liquid culture (Vogels broth), growth inhibition photometrically 3-4 days after application, compared to untreated control
Protocol: as §1, with “B2: Botryotinia fuckeliana (Botrytis cinerea)/Liquid” for “B10: Mycosphaerella arachidis (Cercospora arachidicola)/Liquid”, “(Gray Mould)” for “(Early Leaf Spot)”, “(Vogels broth).” for “(potato dextrose broth)”, “3-4” for “4-5”

[3] = test system: Glomerella lagenarium (Colletotrichum lagenarium); assay: Glomerella lagenarium (Colletotrichum lagenarium) / liquid culture (anthracnose); type: cell-based; details: Colletotrichum orbiculare, liquid culture (potato dextrose broth), growth inhibition photometrically 3-4 days after application, compared to untreated control
Protocol: as §1, with “B3: Glomerella lagenarium (Colletotrichum lagenarium)/Liquid” for “B10: Mycosphaerella arachidis (Cercospora arachidicola)/Liquid”, “(Anthracnose)” for “(Early Leaf Spot)”, “broth).” for “broth)”, “measured” for “determined”, “3-4” for “4-5”

[4] = test system: Mycosphaerella graminicola (Septoria tritici); assay: Mycosphaerella graminicola (Septoria tritici) / liquid culture (Septoria blotch); type: cell-based; details: Zymoseptoria tritici, liquid culture (potato dextrose broth), growth inhibition photometrically 4-5 days after application, compared to untreated control
Protocol: as §1, with “B15:” for “B10:”, “graminicola (Septoria tritici/Liquid” for “arachidis (Cercospora arachidicola)/Liquid”, “(Septoria Blotch)” for “(Early Leaf Spot)”, “broth).” for “broth)”

[5] = test system: Phaeosphaeria nodorum (Septoria nodorum); assay: Phaeosphaeria nodorum (Septoria nodorum) / wheat / leaf disc preventative (glume blotch); type: in vivo; details: Parastagonospora nodorum, foliar, wheat leaf segments cv. Kanzler, inoculated 2 days after application, assessed 5-7 days after application, compared to untreated control
Protocol: Example B8: Phaeosphaeria Nodorum (Septoria nodorum)/Wheat/Leaf Disc Preventative (Glume Blotch) Wheat leaf segments cv. Kanzler are placed on agar in a multiwell plate (24-well format) and sprayed with the formulated test compound diluted in water. The leaf disks are inoculated with a spore suspension of the fungus 2 days after application. The inoculated test leaf disks are incubated at 20° C. and 75% relative humidity under a light regime of 12 h light/12 h darkness in a climate cabinet and the activity of a compound is assessed as percent disease control compared to untreated when an appropriate level of disease damage appears in untreated check leaf disks (5-7 days after application).

[6] = test system: Monographella nivalis (Microdochium nivale); assay: Monographella nivalis (Microdochium nivale) / liquid culture (foot rot cereals); type: cell-based; details: liquid culture (potato dextrose broth), growth inhibition photometrically 4-5 days after application, compared to untreated control
Protocol: as §1, with “B9: Monographella nivalis (Microdochium nivale)/Liquid” for “B10: Mycosphaerella arachidis (Cercospora arachidicola)/Liquid”, “(Foot Rot Cereals)” for “(Early Leaf Spot)”, “broth).” for “broth)”

CC1c2ccsc2C(C)(c2cnn(C)c2)CN1C(=O)c1cc(-c2ccc(F)cc2F)on1 (centres unmarked) [Compound P-20, [5-(2,4-difluorophenyl)isoxazol-3-yl]-[4,7-dimethyl-7-(1-methylpyrazol-4-yl)-4,6-dihydrothieno[3,2-c]pyridin-5-yl]methanone]
≥ 80%: pest or weed control at 200 ppm (Alternaria solani) | inhibition of growth at 20 ppm [1] | inhibition of growth at 20 ppm [2] | inhibition of growth at 20 ppm [3] | inhibition of growth at 20 ppm [4] | pest or weed control at 200 ppm [5]

C[C@@H]1c2sccc2[C@@H](c2cnn(C)c2)CN1C(=O)c1nnc(-c2ccc(F)cc2F)s1 (racemic) [Compound P-16, [5-(2,4-difluorophenyl)-1,3,4-thiadiazol-2-yl]-[rac-(4R,7R)-7-methyl-4-(1-methylpyrazol-4-yl)-5,7-dihydro-4H-thieno[2,3-c]pyridin-6-yl]methanone]
≥ 80%: inhibition of growth at 20 ppm [4]

C[C@@H]1c2sccc2[C@H](c2cnn(C)c2)CN1C(=O)c1nnc(-c2ccc(F)cc2F)s1 [Compound P-1, [5-(2,4-difluorophenyl)-1,3,4-thiadiazol-2-yl]-[(4S,7R)-7-methyl-4-(1-methylpyrazol-4-yl)-5,7-dihydro-4H-thieno[2,3-c]pyridin-6-yl]methanone]
≥ 80%: inhibition of growth at 20 ppm [6] | inhibition of growth at 20 ppm [4]

Cn1cc(C2CN(C(=O)c3cc(-c4ccc(F)cc4F)on3)Cc3cnsc32)cn1 (centres unmarked) [Compound P-23, [5-(2,4-difluorophenyl)isoxazol-3-yl]-[7-(1-methylpyrazol-4-yl)-6,7-dihydro-4H-isothiazolo[4,5-c]pyridin-5-yl]methanone]
≥ 80%: pest or weed control at 200 ppm (Alternaria solani) | inhibition of growth at 20 ppm [3] | inhibition of growth at 20 ppm [6] | inhibition of growth at 20 ppm [4]

Cn1cc(C2CN(C(=O)c3cc(-c4ccc(F)cc4F)on3)Cc3cscc32)cn1 (centres unmarked) [Compound P-29]
≥ 80%: pest or weed control at 200 ppm (Alternaria solani) | inhibition of growth at 20 ppm [1] | inhibition of growth at 20 ppm [2] | inhibition of growth at 20 ppm [3] | inhibition of growth at 20 ppm [6] | inhibition of growth at 20 ppm [4] | pest or weed control at 200 ppm [5]

Cc1nn(C)c(C)c1C1CN(C(=O)c2cc(-c3ccc(F)cc3F)on2)Cc2ccsc21 (centres unmarked) [Compound P-37, [5-(2,4-difluorophenyl)isoxazol-3-yl]-[7-(1,3,5-trimethylpyrazol-4-yl)-6,7-dihydro-4H-thieno[3,2-c]pyridin-5-yl]methanone]
≥ 80%: pest or weed control at 200 ppm (Alternaria solani) | inhibition of growth at 20 ppm [1] | inhibition of growth at 20 ppm [6] | inhibition of growth at 20 ppm [4]

Cn1cc(C2CN(C(=O)c3cc(-c4ccc(F)cc4F)on3)Cc3sncc32)cn1 (centres unmarked) [Compound P-26, [5-(2,4-difluorophenyl)isoxazol-3-yl]-[4-(1-methylpyrazol-4-yl)-5,7-dihydro-4H-isothiazolo[5,4-c]pyridin-6-yl]methanone]
≥ 80%: pest or weed control at 200 ppm (Alternaria solani) | inhibition of growth at 20 ppm [2] | inhibition of growth at 20 ppm [3] | inhibition of growth at 20 ppm [6] | inhibition of growth at 20 ppm [4] | pest or weed control at 200 ppm [5]

C[C@@H]1c2sccc2[C@](C)(c2cnn(C)c2)CN1C(=O)c1nnc(-c2ccc(F)cc2F)s1 [Compound P-5, [5-(2,4-difluorophenyl)-1,3,4-thiadiazol-2-yl]-[(4S,7R)-4,7-dimethyl-4-(1-methylpyrazol-4-yl)-5,7-dihydrothieno[2,3-c]pyridin-6-yl]methanone]
≥ 80%: inhibition of growth at 20 ppm [1] | inhibition of growth at 20 ppm [3]
